Several values for one entry are separate records, joined by “and”; a condition that tells them apart may be missing. Identical values can stand only once.
Tests used:
[1] = test system: harvested rat small intestinal segments: Duodenum; test: Ussing chamber mucosal to serosal transport across rat duodenum; type: in vitro ADME; conditions: 5 mg/ml of DTPA in HEPES Buffer
Protocol: (§1) The primary objective of these in vitro studies was to determine a formulation containing permeation enhancers/other additives that achieved maximum transport of DTPA from mucosal to serosal side of the intestine. The mucosal to serosal absorption of DTPA (Zinc/Calcium) was measured in vitro across harvested rat intestinal segments and colon, in an EasyMount Ussing System (Physiological Instruments Inc., CA, Item #EM-CSYS-8). The Ussing chamber consists of two diffusion chambers, a heating block for temperature control, needle valves for gas flow adjustment and gas lift stirring, and Ag/AgCl voltage and current electrodes for measuring transepithelial voltage and for passing current. Representative sections of the harvested rat small intestinal segments (jejunum, duodenum, and ileum) and the rat colon were mounted on sliders placed between the chambers, and DTPA (Zinc/Calcium) transport across the sections was monitored. Aliquots of sample solution were removed from the ‘serosal’ side at 30 min intervals and analyzed by high performance liquid chromatography (HPLC). The change in mucosal to serosal transport of DTPA (Zinc/Calcium) in the presence of different permeation enhancers was determined.
(§2) Zn-DTPA and Ca-DTPA was dissolved in HEPES buffer (VWR, Brisbane, Calif.), with or without additives, at the predetermined drug concentrations. […]

[2] = test system: harvested rat small intestinal segments: Jejunum; test: Ussing chamber mucosal to serosal transport across rat jejunum; type: in vitro ADME
Protocol: as §1
Zn-DTPA and Ca-DTPA was dissolved in HEPES buffer (VWR, Brisbane, Calif.), with or without additives, at the predetermined drug concentrations. HEPES buffer was used as the base mucosal and serosal fluid. Before initiating the experiment, 5 ml of HEPES buffer was added to each of the two chambers (mucosal and serosal) and was allowed to equilibrate for 20 min. Next, the mucosal buffer was replaced by the appropriate formulation to be tested and the experiment was initiated. Aliquots (0.5 ml) were collected from the serosal side and were replaced with an equivalent amount of fresh HEPES buffer (maintained at physiological temperature). The aliquotted samples from the serosal side were analyzed by HPLC.
Owing to the expected variation in the in vitro conditions and harvested rat intestinal segments, five replicates were used per experimental condition. In order to compare data obtained from the different experiments, the apparent permeability coefficients (Papp) were calculated according to:
[formula] Where, dQ/dt is the linear appearance rate of mass in receiver compartment, C0 is the initial solute concentration in donor compartment, and A is the surface area. The higher the Papp value, the better the permeation property. The similarity of the Papp values indicates similar behavior for the two DTPA compounds.
We then evaluated transport of Zn-DTPA and Ca-DTPA through jejunum segments with and without Labrasol.
We then tested the transport of 100 mg/ml DTPA in HEPES buffer with and without added enhancers across jejunum segments; results are in Table 3.

[3] = test system: harvested rat small intestinal segments: Ileum; test: Ussing chamber mucosal to serosal transport across rat ileum; type: in vitro ADME; conditions: 5 mg/ml of DTPA in HEPES Buffer
Protocol: as §1, §2

[4] = test system: rat colon; test: Ussing chamber mucosal to serosal transport across rat colon; type: in vitro ADME; conditions: 5 mg/ml of DTPA in HEPES Buffer
Protocol: as §1, §2

[5] = Bioavailability study after liquid dose of radiolabeled DTPA (14C) in male Sprague-Dawley rats (SRI Study B230-06); type: in vivo; conditions: for AUC0→last Mean ± SD / AUC0→last: 16.38 mg-equiv DTPA/Kg
Protocol: The objective of this study was to determine the oral bioavailability of Ca-DTPA using radioactive ^14C-DTPA tracer for detection in male Sprague Dawley rats after oral administration in several different formulations. After oral gavage of Ca-DTPA or DTPA (free acid) in sterile water, the oral bioavailability of DTPA is estimated to be about 7% in these two treatment groups. […] In Group 7, which also was administered DTPA in 20% Labrasol (+Quinidine pretreatment), the mean bioavailability was 10%, but this group had greater interindividual variability than seen in the other treatment groups.

O=C([O-])CN(CCN(CC(=O)[O-])CC(=O)[O-])CCN(CC(=O)[O-])CC(=O)[O-].[Ca+2].[Na+].[Na+].[Na+] [Ca-DTPA, calcium diethylenetriaminepentaacetate]
Papp [1]: 1.71 ×10⁻⁶ cm/s | Papp ([2]; Jejunum, 5 mg/ml of drug in HEPES Buffer): 3.84 ×10⁻⁶ cm/s | Papp ([2]; jejunum, 5 mg/ml of drug in HEPES Buffer containing 10% Labrasol): 2.84 ×10⁻⁶ cm/s | Papp ([2]; jejunum, 5 mg/ml of drug in HEPES Buffer containing 20% Labrasol): 3.48 ×10⁻⁶ cm/s | Papp ([2]; jejunum, 5 mg/ml of drug in HEPES Buffer containing 40% Labrasol): 13.51 ×10⁻⁶ cm/s | Papp ([2]; jejunum, 100 mg/ml DTPA in HEPES buffer, 5% Gelucire 44/14 + 5% Labrasol): 7.27 ×10⁻⁶ cm/s | Papp ([2]; jejunum, 100 mg/ml DTPA in HEPES buffer, 5% TPGS + 5% Labrasol): 14.04 ×10⁻⁶ cm/s | Papp ([2]; jejunum, 100 mg/ml DTPA in HEPES buffer, 5% TPGS + 20% Labrasol): 7.85 ×10⁻⁶ cm/s | Papp ([2]; jejunum, 100 mg/ml DTPA in HEPES buffer, 5% Tween 80 + 5% Capmul PG-8): 3.61 ×10⁻⁶ cm/s | Papp ([2]; jejunum, 100 mg/ml DTPA in HEPES buffer, 5% Tween 80 + 5% Labrasol): 11.61 ×10⁻⁶ cm/s | Papp ([2]; jejunum, 100 mg/ml DTPA in HEPES buffer, 5% Tween 80 and 5% Caproyl PGMC): 2.75 ×10⁻⁶ cm/s | Papp ([2]; jejunum, 100 mg/ml DTPA in HEPES buffer, 5% Tween 80 and 5% Labrafil): 2.83 ×10⁻⁶ cm/s | Papp ([2]; jejunum, 100 mg/ml DTPA in HEPES buffer, 10% Gelucire 44/14): 6.57 ×10⁻⁶ cm/s | Papp ([2]; jejunum, 100 mg/ml DTPA in HEPES buffer, 10% Tween 80): 5.43 ×10⁻⁶ cm/s | Papp ([2]; jejunum, 100 mg/ml DTPA in HEPES buffer, 20% Bile Salt): 12.65 ×10⁻⁶ cm/s | Papp ([2]; jejunum, 100 mg/ml of drug in HEPES Buffer containing 10% Labrasol): 6.29 ×10⁻⁶ cm/s | Papp ([2]; jejunum, 100 mg/ml of drug in HEPES Buffer containing 20% Labrasol): 11.76 ×10⁻⁶ cm/s | Papp ([2]; jejunum, 100 mg/ml of drug in HEPES Buffer only): 4.63 ×10⁻⁶ cm/s | Papp [3]: 2.8 ×10⁻⁶ cm/s | Papp [4]: 3.22 ×10⁻⁶ cm/s | % Bioavailability ([5]; Group 1 IV, saline (reference)): 100% | % Bioavailability Mean ± SD ([5]; Group 1 IV, saline (reference)): 100.00% | AUC0→last Mean ± SD ([5]; Group 1 IV, saline, last time point 3 hr): 17.73 ± 0.63 Hr * ( ng/ml) | AUC0→last ([5]; Group 1 IV, saline, last time point 3 hr, individual rats): 17.3934 Hr * ( ng/ml) and 17.34 Hr * ( ng/ml) and 18.4585 Hr * ( ng/ml) | AUC0→last Mean ± SD ([5]; Group 2 Oral, water, 6 hr): 1.22 ± 0.05 Hr * ( ng/ml) | AUC0→last ([5]; Group 2 Oral, water, last time point 6 hr, individual rats): 1.2411 Hr * ( ng/ml) and 1.1632 Hr * ( ng/ml) and 1.2516 Hr * ( ng/ml) | % Bioavailability ([5]; Group 2 Oral, water, individual rats): 7.00% and 6.56% and 7.06% | % Bioavailability Mean ± SD ([5]; Group 4 Oral, 20% Labrasol): 12.14 ± 2.29% | AUC0→last Mean ± SD ([5]; Group 4 Oral, 20% Labrasol, 6 hr): 2.15 ± 0.41 Hr * ( ng/ml) | AUC0→last ([5]; Group 4 Oral, 20% Labrasol, last time point 6 hr, individual rats): 1.6901 Hr * ( ng/ml) and 2.3145 Hr * ( ng/ml) and 2.4507 Hr * ( ng/ml) | % Bioavailability ([5]; Group 4 Oral, 20% Labrasol, individual rats): 9.53% and 13.05% and 13.82% | % Bioavailability Mean ± SD ([5]; Group 5 Oral, 5% Labrasol): 7.12 ± 1.37% | AUC0→last Mean ± SD ([5]; Group 5 Oral, 5% Labrasol, 6 hr): 1.26 ± 0.24 Hr * ( ng/ml) | AUC0→last ([5]; Group 5 Oral, 5% Labrasol, last time point 6 hr, individual rats): 1.4714 Hr * ( ng/ml) and 0.9971 Hr * ( ng/ml) and 1.3181 Hr * ( ng/ml) | % Bioavailability ([5]; Group 5 Oral, 5% Labrasol, individual rats): 8.30% and 5.62% and 7.43% | % Bioavailability Mean ± SD ([5]; Group 6 Oral, 5% TPGS + 5% Labrasol): 7.909 ± 0.84% | AUC0→last Mean ± SD ([5]; Group 6 Oral, 5% TPGS + 5% Labrasol, 6 hr): 1.40 ± 0.15 Hr * ( ng/ml) | AUC0→last ([5]; Group 6 Oral, 5% TPGS + 5% Labrasol, last time point 6 hr, individual rats): 1.3506 Hr * ( ng/ml) and 1.284 Hr * ( ng/ml) and 1.5688 Hr * ( ng/ml) | % Bioavailability ([5]; Group 6 Oral, 5% TPGS + 5% Labrasol, individual rats): 7.62% and 7.24% and 8.85% | AUC0→last Mean ± SD ([5]; Group 7 Oral, 0.15 mM Quinidine 20 min before, then 20% Labrasol, 6 hr): 1.81 ± 1.39 Hr * ( ng/ml) | AUC0→last ([5]; Group 7 Oral, 0.15 mM Quinidine 20 min before, then 20% Labrasol, last time point 6 hr, individual rats): 3.3876 Hr * ( ng/ml) and 1.2912 Hr * ( ng/ml) and 0.7655 Hr * ( ng/ml) | % Bioavailability Mean ± SD ([5]; Group 7 Oral, 0.15 mM Quinidine pretreatment then 20% Labrasol): 10.23 ± 7.82% | % Bioavailability ([5]; Group 7 Oral, 0.15 mM Quinidine pretreatment then 20% Labrasol, individual rats): 19.10% and 7.28% and 4.32%
